Measured values: patent US11236120B2, “Azithromycin derivatives with epithelial barrier enhancement properties” (EpiEndo Pharmaceuticals ehf, priority 2015, dated 2022)
≈ marks a conversion by molar mass, not a printed value. Entries after “also recorded” stand apart in the source; their conditions may differ.

How the values were obtained:
[1] = system: epithelial cells in vitro ALI culture; conditions: cited from earlier work
[2] = system: Mycobacterium avium complex (MAC); assay: Assay 2: STC colorimetric microplate assay, comparison over the Mycobacteria studied; format: cell-based; conditions: all four strains of M. avium and M. intracellulare
[3] = Solubility in 10 mM phosphate buffer (pH 7.4); format: physicochemical; conditions: pH 7.4, aqueous buffer, kinetic from dmso stock, 60 minutes at room temperature, filtered, read-out: MTS Solubility in Buffer (pH 7.4)
Description: Solubility in 10 mM Phosphate Buffer (pH 7.4)
The solubility sample testing of the compounds was performed by in phosphate buffer at pH 7.4 and using HPLC-MS detection. A stock solution of […] in DMSO was prepared for each compound. For the solubility test sample, 100 μL of the stock solution was diluted with 3.9 mL of a 10 mM phosphate buffer at […] to a final concentration of […]. The buffer solution was left to stand for 60 minutes at room temperature and then filtered. The filtrate was analyzed against two calibration points of the same analyte prepared at […] using HPLC-MS. These calibration points were prepared from the same stock solution as the solubility sample by diluting it with DMSO:H2O (1:1) 1:40 and then again 1:10. The chromatographic signal area of the analyte in the solubility sample was then compared to the chromatographic signal area of the two calibration samples.
(§1) The chromatographic separation was performed on a Waters HPLC-MS system using a 50×2.1 mm×Bridge C18 column and a gradient elution of Water with 0.1% formic acid and acetonitrile with 0.1% formic acid. The analytes were analyzed in positive electro-spray mode using the (M+H)^+ in single ion recording.

[4] = Stability in human plasma; format: in vitro ADME; conditions: room temperature
Description: Stability in Mouse and Human Plasma
The stability of the compounds in mouse and human plasma was performed using protein precipitation as sample clean-up and HPLC-MS detection. The plasma stability studies of the compounds was performed at room temperature for up to 4 hours. A stock solution of […] in DMSO was prepared for each compound. For the plasma stability samples, 100 μL of the stock solution was diluted with 3.9 mL of either mouse or human plasma to a final concentration of […]. The plasma was left to equilibrate for 10 minutes at room temperature before the first analysis. For each analyzed time point ([…]) a 100 μL aliquot of the plasma was removed and protein precipitation (PPT) was performed on the aliquot by adding 900 μL of (ACN:DMSO) 95:5. The precipitated sample was shaken for 60 seconds and then centrifuged. The supernatant was transferred to an HPLC vial and analyzed using HPLC-MS. The chromatographic signal area of the samples at the different time points were then compared against each other, by setting the initial analysis at t=0 min as 100% and then calculating the %-value for each subsequent time point.
as §1

[5] = system: barrier integrity in the lungs of mice under sulphur dioxide insult; assay: Barrier integrity enhancement in the lung: HSA leakage into BAL after sulphur dioxide insult; format: in vivo
Description: The effect of compounds of the invention on maintenance of barrier integrity in the lungs of mice under sulphur dioxide insult was investigated.
1. 15 female mice were randomised into 3 groups of 5 mice. The three groups were: • a) Control group • b) Azithromycin treatment group • c) Investigational compound treatment group
2. The mice were pre-treated for three days with: • a) Placebo (Phosphate buffered saline—PBS) given at a dose of 10 mg/kg in an intravenous injection of 100 μl three times per week. • b) Azithromycin: given at a dose of 10 mg/kg in an intravenous injection of 100 μl three times per week. • c) The compound of Example 2: given at a dose of 10 mg/kg in an intravenous injection of 100 μl three times per week.
3. One mouse in each group was set to one side as a control. Four mice were then exposed to sulphur dioxide gas at a concentration of 200 ppm in air for a period of 60 minutes. The mice were in a cage that was inserted into a 45 L treatment box with a removable lid, a gas feed line and a gas exhaust vent. […] The gas was premixed from bottled air and bottled 200 ppm SO2 in a first box and then fed into the treatment box. The level of SO2 being fed into the treatment box can be varied by adjusting the relative flow of air and SO2 from the two source cylinders. As the sulphur dioxide concentration in this experiment was 200 ppm, it was used neat, with no additional air being mixed with it. The mice had access to food and water for the duration of the treatment.
4. 24 hours after the end of the treatment, 1 mg of human serum albumin (HSA) in 100 μl saline was injected into the tail vein of each mouse, and fluorescent dextrans (FDs) were injected into the airways. The mice were then kept sedated for 90 minutes.
5. After 90 minutes, the mice were sacrificed via exsanguination. Plasma and bronchoalveolar lavage (BAL) were collected and the lungs were processed for paraffin embedding.
6. The level of HSA in the BAL was quantified by ELISA. The ELISA test used was the one commercially available from abcam (Human Serum Albumin kit ab179887). In line with the kit manufacturer's instructions, absorbance at […] was measured. Fluorescent dextrans are quantified using a fluorescent plate reader.
The level of HSA that leaks into the lungs, as found in the BAL, is a measure of the integrity of the lung epithelial barrier.
In the placebo group, there were experimental difficulties with two of the four mice; in the Azithromycin group, there were experimental difficulties with one of the four mice; and in the investigational compound group, there were experimental difficulties with two of the four mice. Therefore, results were obtained from two mice in each of the placebo and investigational compound groups, and from three mice in the Azithromycin group.

Molecule: CC[C@H]1OC(=O)[C@H](C)[C@@H](O[C@H]2C[C@@](C)(OC)[C@@H](O)[C@H](C)O2)[C@H](C)[C@@H](O[C@@H]2O[C@H](C)C[C@H](N(C)C)[C@H]2O)[C@](C)(O)C[C@@H](C)C(=O)[C@H](C)[C@@H](O)[C@]1(C)O [Erythromycin]
- effect on transepithelial resistance (TER) and cellular processing of tight junctions [1]: not to exhibit similar effects

Molecule: CC[C@H]1OC(=O)[C@H](C)[C@@H](O[C@H]2C[C@@](C)(OC)[C@@H](O)[C@H](C)O2)[C@H](C)[C@@H](O[C@@H]2O[C@H](C)C[C@H](N(C)C)[C@H]2O)[C@](C)(OC)C[C@@H](C)C(=O)[C@H](C)[C@@H](O)[C@]1(C)O [Clarithromycin]
- sensitivity of the MAC strains used [2]: sensitive

Molecule: penicillin
- effect on transepithelial resistance (TER) and cellular processing of tight junctions [1]: not to exhibit similar effects

Molecule: CC[C@H]1OC(=O)[C@H](C)[C@@H](O)[C@H](C)[C@@H](O[C@@H]2O[C@H](C)C[C@H](N(C)C)[C@H]2OC(=O)c2ccccc2)[C@](C)(O)C[C@@H](C)CN(C)[C@H](C)[C@@H](O)[C@]1(C)O [Example 2]
- solubility at 60 min [3]: 3.62 µM (≈ 2.52 µg/mL)
- Degradation in Human Plasma at RT [4]: Stable
- HSA level - absorbance at 600 nm ([5]; HSA in BAL by ELISA, mice, 10 mg/kg intravenous, 200 ppm SO2 for 60 minutes): 0.373 ± 0.037
- leakage of HSA into the lung following SO2 insult ([5]; compared with control, FIG. 1): reduced compared with the control; also recorded: reduced compared with a control
- HSA level - absorbance at 600 nm relative to control ([5]; relative to PBS control, mice, 10 mg/kg intravenous, 200 ppm SO2 for 60 minutes): 0.640 ± 0.058
